PubChem BioAssay AID330 (DTP/NCI, 2004)
Values joined by “and” are separate entries in the source; they are usually repeats but may differ in a detail not shown here. Equal values may be shown once. Toxic doses and inconclusive results are not listed. Rule for the calls: active = survival T/C of 150% or more; inactive = T/C below 125% in these data.

System: P388 leukemia ip, CD2F1 mice, survival T/C
Experiment: NCI In Vivo Anticancer Drug Screen. Data for tumor model P388 Leukemia (intraperitoneal) in CD2F1 (CDF1) mice
Settings: endpoint: median survival time, higher = longer survival
Procedure, shortened: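 Mice carrying the transplanted tumor received test compound or vehicle. Survival was recorded in each group, and the value is the treated-group measurement divided by that of the vehicle-treated control group.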

[1] = dose: 25.0 mg/kg/injection, schedule: Q01DX005 (ip), vehicle: Klucel (hydroxypropylcellulose) (HPC)
[2] = dose: 50.0 mg/kg/injection, schedule: Q01DX005 (ip), vehicle: Klucel (hydroxypropylcellulose) (HPC)
[3] = dose: 100.0 mg/kg/injection, schedule: Q01DX005 (ip), vehicle: Klucel (hydroxypropylcellulose) (HPC)
[4] = dose: 12.5 mg/kg/injection, schedule: Q01DX005 (ip), vehicle: saline with Tween-80
[5] = dose: 50.0 mg/kg/injection, schedule: Q01DX005 (ip), vehicle: saline with Tween-80
[6] = dose: 50.0 mg/kg/injection, schedule: Q01DX005 (ip), vehicle: saline
[7] = dose: 100.0 mg/kg/injection, schedule: Q01DX005 (ip), vehicle: saline with Tween-80

Measured: T/C

CN(CNC(N)=O)N=O
inactive: dose: 50.0 mg/kg/injection, schedule: Q01DX009 (ip), vehicle: water 99 % of control | dose: 100.0 mg/kg/injection, schedule: Q01DX009 (ip), vehicle: water 108 % of control | dose: 200.0 mg/kg/injection, schedule: Q01DX009 (ip), vehicle: water 107 % of control

COc1ccc(-c2cnc(C(N)=O)c(=O)[nH]2)cc1
inactive: dose: 100.0 mg/kg/injection, schedule: Q04DX003 (ip), vehicle: saline with Tween-80 104 % of control | dose: 200.0 mg/kg/injection, schedule: Q04DX003 (ip), vehicle: saline with Tween-80 95 % of control | dose: 400.0 mg/kg/injection, schedule: Q04DX003 (ip), vehicle: saline with Tween-80 100 % of control

CN1N=Nc2ccccc2C1O (centres undefined)
inactive: [1] 92 % of control | [2] 95 % of control | [3] 116 % of control

c1ccc2sc(N3CCCCC3)nc2c1
inactive: dose: 25.0 mg/kg/injection, schedule: Q04DX003 (ip), vehicle: Klucel (hydroxypropylcellulose) (HPC) 105 % of control | dose: 50.0 mg/kg/injection, schedule: Q01DX009 (ip), vehicle: saline 104 % of control | dose: 50.0 mg/kg/injection, schedule: Q04DX003 (ip), vehicle: Klucel (hydroxypropylcellulose) (HPC) 99 % of control | dose: 100.0 mg/kg/injection, schedule: Q01DX009 (ip), vehicle: saline 104 % of control | dose: 100.0 mg/kg/injection, schedule: Q04DX003 (ip), vehicle: Klucel (hydroxypropylcellulose) (HPC) 100 % of control | dose: 200.0 mg/kg/injection, schedule: Q01DX009 (ip), vehicle: saline 103 % of control | dose: 200.0 mg/kg/injection, schedule: Q04DX003 (ip), vehicle: Klucel (hydroxypropylcellulose) (HPC) 109 % of control

O=c1cc(NC2OC(CO)C(O)C(O)C2O)[nH]c(=O)[nH]1 (centres undefined)
inactive: dose: 60.0 mg/kg/injection, schedule: Q01DX005 (ip), vehicle: saline with Tween-80 96 % of control | dose: 120.0 mg/kg/injection, schedule: Q01DX005 (ip), vehicle: saline with Tween-80 102 % of control | dose: 240.0 mg/kg/injection, schedule: Q01DX005 (ip), vehicle: saline with Tween-80 104 % of control

S=c1[nH]c2ccccc2n1CCc1ccncc1
inactive: dose: 25.0 mg/kg/injection, schedule: Q01DX007 (ip), vehicle: Klucel (hydroxypropylcellulose) (HPC) 104 % of control | dose: 25.0 mg/kg/injection, schedule: Q01DX008 (ip), vehicle: Klucel (hydroxypropylcellulose) (HPC) 103 % of control | dose: 50.0 mg/kg/injection, schedule: Q01DX007 (ip), vehicle: Klucel (hydroxypropylcellulose) (HPC) 104 % of control | dose: 50.0 mg/kg/injection, schedule: Q01DX008 (ip), vehicle: Klucel (hydroxypropylcellulose) (HPC) 106 % of control | dose: 50.0 mg/kg/injection, schedule: Q01DX009 (ip), vehicle: Klucel (hydroxypropylcellulose) (HPC) 93 % of control | dose: 100.0 mg/kg/injection, schedule: Q01DX007 (ip), vehicle: Klucel (hydroxypropylcellulose) (HPC) 99 % of control | dose: 100.0 mg/kg/injection, schedule: Q01DX008 (ip), vehicle: Klucel (hydroxypropylcellulose) (HPC) 100 % of control | dose: 100.0 mg/kg/injection, schedule: Q01DX009 (ip), vehicle: Klucel (hydroxypropylcellulose) (HPC) 94 % of control | dose: 200.0 mg/kg/injection, schedule: Q01DX007 (ip), vehicle: Klucel (hydroxypropylcellulose) (HPC) 106 % of control | dose: 200.0 mg/kg/injection, schedule: Q01DX008 (ip), vehicle: Klucel (hydroxypropylcellulose) (HPC) 106 % of control | dose: 200.0 mg/kg/injection, schedule: Q01DX009 (ip), vehicle: Klucel (hydroxypropylcellulose) (HPC) 94 % of control

NC1=C(O)C(=O)C2(O1)C(=O)Nc1ccccc12 (centres undefined)
inactive: [2] 100 % of control | [3] 100 % of control | dose: 200.0 mg/kg/injection, schedule: Q01DX005 (ip), vehicle: Klucel (hydroxypropylcellulose) (HPC) 106 % of control

CC(C)c1ccc(C(Cc2ccccc2)N(CCO)CCO)cc1 (centres undefined)
inactive: dose: 12.5 mg/kg/injection, schedule: Q01DX005 (ip), vehicle: Klucel (hydroxypropylcellulose) (HPC) 105 % of control | [1] 104 % of control | [2] 99 % of control and 91 % of control

Cn1c(=O)ccc2ccccc21
inactive: dose: 25.0 mg/kg/injection, schedule: Q04DX002 (ip), vehicle: saline with Tween-80 103 % of control | dose: 50.0 mg/kg/injection, schedule: Q04DX002 (ip), vehicle: saline with Tween-80 100 % of control | dose: 50.0 mg/kg/injection, schedule: Q04DX003 (ip), vehicle: saline 108 % of control | dose: 100.0 mg/kg/injection, schedule: Q04DX002 (ip), vehicle: saline with Tween-80 108 % of control | dose: 100.0 mg/kg/injection, schedule: Q04DX003 (ip), vehicle: saline 104 % of control and 113 % of control

CS(=O)(=O)CC(=N\N)/C(CS(C)(=O)=O)=N/N
inactive: dose: 60.0 mg/kg/injection, schedule: Q01DX005 (ip), vehicle: saline 100 % of control | dose: 120.0 mg/kg/injection, schedule: Q01DX005 (ip), vehicle: saline 100 % of control | dose: 240.0 mg/kg/injection, schedule: Q01DX005 (ip), vehicle: saline 108 % of control

CCC[CH2][Sn]([CH2]CCC)([O]c1ccccc1C=Nc1ccc(F)cc1)[O]c1ccccc1C=Nc1ccc(F)cc1
inactive: dose: 6.25 mg/kg/injection, schedule: Q01DX005 (ip), vehicle: saline with Tween-80 116 % of control | [4] 122 % of control

CCCCCCCCCCCCCCCCS.[Ge]
inactive: dose: 12.5 mg/kg/injection, schedule: Q01DX009 (ip), vehicle: saline with Tween-80 106 % of control | dose: 25.0 mg/kg/injection, schedule: Q01DX009 (ip), vehicle: saline with Tween-80 98 % of control | dose: 50.0 mg/kg/injection, schedule: Q01DX009 (ip), vehicle: saline with Tween-80 104 % of control

CCCCCC(=N\N=C(N)N)/C(C)=N/N=C(N)N
inactive: [4] 98 % of control | dose: 25.0 mg/kg/injection, schedule: Q01DX005 (ip), vehicle: saline with Tween-80 97 % of control | [5] 101 % of control | [6] 100 % of control

Cn1ncc2c(N)cc(=O)[nH]c21
inactive: dose: 100.0 mg/kg/injection, schedule: Q01DX001 (ip), vehicle: saline with Tween-80 101 % of control | dose: 200.0 mg/kg/injection, schedule: Q01DX001 (ip), vehicle: saline with Tween-80 94 % of control | dose: 400.0 mg/kg/injection, schedule: Q01DX001 (ip), vehicle: saline with Tween-80 104 % of control

ClC1CCCCC1C(C1CCCCC1)C1CCCCC1 (centres undefined)
inactive: [5] 98 % of control | [7] 100 % of control

c1onc2cc3c(cc12)OCO3
inactive: dose: 0.39 mg/kg/injection, schedule: Q01DX009 (ip), vehicle: Klucel (hydroxypropylcellulose) (HPC) 86 % of control and 88 % of control | dose: 0.78 mg/kg/injection, schedule: Q01DX009 (ip), vehicle: Klucel (hydroxypropylcellulose) (HPC) 89 % of control and 95 % of control | dose: 1.56 mg/kg/injection, schedule: Q01DX009 (ip), vehicle: Klucel (hydroxypropylcellulose) (HPC) 124 % of control and 89 % of control and 93 % of control | dose: 3.13 mg/kg/injection, schedule: Q01DX009 (ip), vehicle: Klucel (hydroxypropylcellulose) (HPC) 99 % of control and 92 % of control | dose: 12.5 mg/kg/injection, schedule: Q01DX009 (ip), vehicle: Klucel (hydroxypropylcellulose) (HPC) 89 % of control | dose: 25.0 mg/kg/injection, schedule: Q01DX009 (ip), vehicle: Klucel (hydroxypropylcellulose) (HPC) 93 % of control

Cc1cccc(C(C)(C)C)c1NC(=O)CCc1nnc(N)n1N
inactive: [5] 111 % of control | [7] 100 % of control | dose: 200.0 mg/kg/injection, schedule: Q01DX005 (ip), vehicle: saline with Tween-80 101 % of control

O=C(c1ccccc1)c1ccc[n+](Cc2ccccc2)c1
inactive: dose: 25.0 mg/kg/injection, schedule: Q01DX005 (ip), vehicle: saline 100 % of control | [6] 111 % of control | dose: 100.0 mg/kg/injection, schedule: Q01DX005 (ip), vehicle: saline 109 % of control

Cc1ccc2c(c1O)NC(O)c1cccn1C2=O (centres undefined)
inactive: dose: 0.1 mg/kg/injection, schedule: Q01DX005 (ip), vehicle: water 99 % of control | dose: 0.2 mg/kg/injection, schedule: Q01DX005 (ip), vehicle: water 111 % of control | dose: 0.4 mg/kg/injection, schedule: Q01DX005 (ip), vehicle: water 100 % of control | dose: 0.8 mg/kg/injection, schedule: Q01DX005 (ip), vehicle: water 98 % of control | dose: 1.6 mg/kg/injection, schedule: Q01DX005 (ip), vehicle: water 96 % of control | dose: 5.0 mg/kg/injection, schedule: Q01DX005 (ip), vehicle: distilled water + Tween-80 92 % of control | dose: 10.0 mg/kg/injection, schedule: Q01DX005 (ip), vehicle: distilled water + Tween-80 98 % of control | dose: 20.0 mg/kg/injection, schedule: Q01DX005 (ip), vehicle: distilled water + Tween-80 91 % of control | dose: 80.0 mg/kg/injection, schedule: Q01DX005 (ip), vehicle: distilled water + Tween-80 86 % of control
